# In article PMC6433934, “Preclinical Evaluation of Bispecific Adaptor Molecule Controlled Folate Receptor CAR-T Cell Therapy With Special Focus on Pediatric Malignancies” (Frontiers in Oncology, 2019):
# Assays:
# MDA-MB-231 tumor = experiment: Kinetics of CAR-T cell expansion and tumor uptake in vivo; design: species or system NSG mice; settings: ~4.8 million EGFRt-sorted E2-CAR-T cells day 0, EC17 500 nmol/kg weekly i.v.
# Protocol: All animal care and use were performed according to NIH guidelines and in compliance with protocols approved by the Purdue University Animal Use and Care Committee. Female 4 to 5-weeks-old NOD/SCID gamma (NSG™) mice (stock number: 005557) were purchased from The Jackson Laboratory (Bar Harbor, ME). Unless specifically indicated, all animals were maintained on a FA-deficient diet (TestDiet, St. Louis, MO) upon arrival and throughout the study. To establish subcutaneous xenografts, MDA-MB-231 and HOS-FRα were implanted in the right flank region at 2.5 × 10^6 and 1 × 10^6 cells per animal, respectively. For intravenous xenografts, THP1-FRβ cells were inoculated at 5 × 10^6 cells per animal. Subcutaneous tumors were measured 2–3 times per week with a caliper and calculated using the ellipsoidal formula (length x width^2)/2. […] All animal doses (CAR-T cells, EC17, sodium fluorescein) were given intravenously.
# To study CAR-T cell expansion in vivo, we started with 15 MDA-MB-231 tumor bearing mice having ~4.8 million EGFRt-sorted E2-CAR-T cells (1:1 CD4/CD8) injected on day 0. […] For each collection, fresh blood and tumor samples (if available) were analyzed for the presence of human CD3ε+ EGFRt+ CAR-T cells by flow cytometry. Moreover, we analyzed phenotypic changes of E2-CAR-T cells in the circulation (TSCM, TCM, TEM, and TEFF) and the activation status of tumor-infiltrating CAR-T cells (i.e., CD137/4-1BB, PD1).
# For CAR-T cell analysis in the circulation, plasma was removed from a predetermined volume of whole blood collected into tubes containing ethylenediaminetetraacetic acid anticoagulant. […] A minimum of 20,000 propidium iodide negative live cell events were collected on the Gallios flow cytometer and analyzed with the Kaluza software, version 2.1 (Beckman Coulter, Brea, CA). CAR-positive T cells were identified in mouse blood as human CD3ε+ EGFRt+ events and absolute numbers per volume of blood were calculated using equal numbers of CountBright™ beads (Invitrogen, Carlsbad, CA) added to each sample. […]
# [1] = EC17 dose finding safety study, tumor-free mice; type: in vivo; design: key to CRS grade: 0: normal (no CRS); 1: mild; 2: light-to-moderate; 3–4: severe CRS; 5: death (due to severe CRS); settings: ~10 million E2-CAR-T cells
# From the text: For MDA-MB-231 studies, mice received a high dose (~10 million) of a “clinical facsimile” of E2-CAR-T cells (~39% EGFRt+) with a low differentiation profile. Two days later, we started them with 3 different treatment regimens of EC17 at an average tumor size of ~293 ± 39 mm^3. The EC17 dosing was given once-a-week (SIW) at 500 nmol/kg on Mondays, or as escalating doses of 5, 50, or 100, and 500 or 1,000 nmol/kg on Monday, Thursday, and Monday with a 6 day break in-between cycles. Control mice were left untreated (received CAR-T cells but no EC17). For comparison, a cohort of tumor-free littermates also received the same number of CAR-T cells without or with EC17 SIW at 500 nmol/kg. To study the effect of high dietary folate, two sets of NSG mice were placed on either a FA-replete diet (4 mg/kg, Envigo, Indianapolis, IN) or a FA-deficient diet (TestDiet, St. Louis, MO) upon arrival. […]
# Depending on the CAR-T cell dose and how EC17 is administered, tumor-bearing mice receiving FITC-specific CAR-T cells can experience severe CRS and varying degrees of body weight loss ([27], [33], [34]). […] On the days immediately following each EC17 dose, animals were scored and rescue agents such as sodium fluorescein, folic acid and leucovorin were used to mitigate CRS toxicity ([33]). […]
smiles,measurement,setting,value
"Nc1nc2ncc(CNc3ccc(C(=O)NC(CCC(=O)NCCNC(=S)Nc4ccc(-c5c6ccc(=O)cc-6oc6cc(O)ccc56)c(C(=O)O)c4)C(=O)O)cc3)nc2c(=O)[nH]1 (centres unmarked) [EC17, FA-(γ)-ethylenediamine-FITC]",time of peak of circulating CAR-T cells,MDA-MB-231 tumor,~15 days
same,tumor response,MDA-MB-231 tumor; smaller tumors,started to respond after the second EC17 dose
same,persistence of circulating CAR-T cells,MDA-MB-231 tumor; last analysis by flow cytometry,up to 30 days
same,CRS grade,"[1]; 2 weekly doses EC17 500 nmol/kg, 0–5 scale",0
same,CAR-T cell expansion by flow cytometry,[1]; EC17 SIW 500 nmol/kg,no CAR-T cell expansion was detected
